Reference: patent publication US20170029355A1, “LABILE ESTERS OF AGROCHEMICALS FOR CONTROLLED RELEASE AND REDUCTION OF OFF-SITE MOVEMENT” (Monsanto Technology LLC, priority 2011, published 2017)

Assays:
[1] = In vitro photo-release and hydrolytic release of dicamba in an aqueous medium (Example 35); format: physicochemical; conditions: 0.01 mM ester, 35° C.
Procedure: This Example describes the determination of photo-lability and hydrolytic lability of dicamba esters in an aqueous medium. 1 mM solutions of the esters were prepared in acetonitrile (or […] solutions of dicamba diesters). The solutions were then diluted with deionized water to a concentration of 0.01 mM (or 0.005 mM for diesters). The solutions were then transferred to quartz tubes and amber bottles and held in a growth chamber by the procedure of Example 26. A 14-hour day was generally used at a constant temperature of 35° C. Hydrolytic activity was assessed by measuring the increase in dicamba concentration after day zero in the amber (dark) bottles. […] Photolysis manifested itself as increased conversion in the quartz tubes compared to the dark control.

velvetleaf [2] = test: Greenhouse post-emergent control of velvetleaf by emulsifiable concentrates (Example 29); format: in vivo; conditions: three weeks after treatment
How it was run: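 Greenhouse velvetleaf 10–15 cm tall sprayed post-emergence with photo-labile ester emulsifiable concentrates at 140, 280, 420 and 560 g dicamba equivalent/ha, alongside dicamba diglycolamine salt at the same rates and untreated plants. Percent control scored three weeks after treatment.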

[3] = In vitro dicamba photo-release from photo-labile dicamba esters, tetrahydrofuran solvent (Example 26); format: physicochemical; conditions: THF, 0.1 mM ester; for Dark Control % dicamba: initial solution kept away from the light source, analyzed at conclusion of study
Procedure: This Example describes in vitro testing of dicamba photo-release by homogeneous solutions of photo-labile dicamba esters. The esters were dissolved in tetrahydrofuran (THF). Ester concentration was 0.1 mM. 25 ml of the solution was transferred to 22 mm tubes fabricated from graded seal quartz tubing with a 19/22 tapered seal at the top, which was closed with a tapered glass plug and secured with a plastic ring clamp. The solution was entirely below the quartz-to-glass transition, ensuring that the entire volume was exposed to the full spectrum.
The sealed tubes were placed in a Growth Chamber where they were exposed to simulated sunlight for 14 hours per day at 35° C. Dicamba concentrations in the solution were measured during the course of the photolysis.
A sample of the initial solution was reserved in a glass vial away from the light source and analyzed at the conclusion of the study, providing a measurement of the amount of dicamba present without illumination of the photolysis solution (the “dark control”).

[4] = system: glyphosate-tolerant, dicamba-sensitive soy plants; test: Humidome volatility injury to dicamba-sensitive plants (Example 31); conditions: assessed after three weeks in greenhouse; for % Injury: soy plants 24 hours in closed humidome over sprayed soil (0.5% dicamba equivalent + 1.5% glyphosate), 35° C.; for Growth Stage: soy plants 24 hours in closed humidome over sprayed soil
Description: In this case, the diglycolamine salt of dicamba (CLARITY®) was used for comparison.
Dicamba photo-labile ester formulations from Example 28 were mixed with a commercial glyphosate formulation (ROUNDUP POWERMAX®) and diluted to provide a solution with a 0.5% dicamba equivalent concentrate of the ester (or dicamba diglycolamine salt) and 1.5% concentrate of glyphosate. The mixtures were sprayed at a 10 gallon per acre (93.5 liters per hectare) rate on soil in a plastic container (“humidome”) with a transparent lid. One soil container was sprayed with water as a control. Four glyphosate-tolerant, dicamba-sensitive soy plants between V2 and V3 stage were immediately placed on the sprayed soil and the domes attached to the trays with binder clips. The soy plants were in pots placed directly on the soil but with aluminum foil wrapped around the bottom to prevent uptake of dicamba or dicamba esters through the roots.
The closed containers were held for 24 hours in a growth chamber which was maintained at 35° C. with 40% relative humidity. The plants were then removed and grown in a greenhouse for three weeks. At this time plant injury and growth stage were assessed compared to the control treated with water only.

broadleaf weeds = test: Control of broadleaf weeds by ester concentrates (statements of the description); format: in vivo; conditions: for control of a number of broadleaf weeds in field testing, in words: emulsifiable and suspension concentrates, Sesbania macrocarpa, morning glory, velvetleaf, Palmer amaranth, fat hen, sicklepod
morning glory = test: Field testing of emulsifiable concentrates, post-emergent control (Example 38); format: in vivo; conditions: for post-emergent control of morning glory compared with the dicamba salt, in words: 280 and 420 g dicamba acid equivalent per hectare; for % control, 280 g/ha, Morning glory: 280 g dicamba acid equivalent per hectare; for % control, 280 g/ha, Morning glory / % control, 420 g/ha, Morning glory: 11 or 21 days after treatment; for % control, 420 g/ha, Morning glory: 420 g dicamba acid equivalent per hectare
Description: (§1) Four dicamba esters, 1a, 2, 9, and 13a, were formulated as emulsifiable concentrates for field testing. All formulations contained 5% each of a alkylbenzene sulfonate calcium salt (Huntsman NANSA EVM 62/H or Akzo Nobel WITCONATE P-1220 EH) and castor oil ethoxylate (Huntsman SURFONIC CO-54) as the emulsifiers and Aromatic 200 (Exxon) or monochlorobenzene (MCB) as the solvent.
(§2) The esters were compared to the diglycolamine salt of dicamba (CLARITY™) for post-emergent control of three broadleaf weeds: velvetleaf, morning glory, and hemp sesbania. Rates of 280 and 420 g dicamba acid equivalent per hectare were used. […] Evaluations were conducted at 11 or 21 days after treatment. Locations and timing were identical for all formulations tested.

velvetleaf [5] = test: as above; format: in vivo; conditions: for post-emergent control of velvetleaf compared with the dicamba salt, in words: 280 and 420 g dicamba acid equivalent per hectare; for % control, 280 g/ha, Velvetleaf: 280 g dicamba acid equivalent per hectare; for % control, 280 g/ha, Velvetleaf / % control, 420 g/ha, Velvetleaf: 11 or 21 days after treatment; for % control, 420 g/ha, Velvetleaf: 420 g dicamba acid equivalent per hectare
Description: as §1, §2

hemp sesbania = test: as above; format: in vivo; conditions: for post-emergent control of hemp sesbania compared with the dicamba salt, in words: 280 and 420 g dicamba acid equivalent per hectare; for % control, 280 g/ha, Hemp sesbania: 280 g dicamba acid equivalent per hectare; for % control, 280 g/ha, Hemp sesbania / % control, 420 g/ha, Hemp sesbania: 11 or 21 days after treatment; for % control, 420 g/ha, Hemp sesbania: 420 g dicamba acid equivalent per hectare
Description: as §1, §2

Euphorbia species = test: Field testing for post-emergent activity in the Southern Hemisphere (Example 39); format: in vivo; conditions: 9 as suspension concentrate, other esters as emulsifiable concentrates
How it was run: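 Southern Hemisphere field trial, post-emergence application on Euphorbia weeds. Esters applied as emulsifiable concentrates in aromatic solvent with emulsifiers, one ester as a suspension concentrate. Dicamba diglycolamine salt served as comparator.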

[6] = simulated sunlight 14 hours per day, 35° C.

In the case of COc1c(Cl)ccc(Cl)c1C(=O)OCCc1ccccc1[N+](=O)[O-] [Ester 2, 2-Nitrophenethyl Ester of Dicamba], the “Conversion to Dicamba, Dark, Day 0” value ([1]; amber (dark) bottle) is reported as 3%, the “Conversion to Dicamba, Dark, Day 1” value ([1]; amber (dark) bottle) is reported as 3% and the “Conversion to Dicamba, Dark, Day 2” value ([1]; amber (dark) bottle) is reported as 3%. For the same molecule, the “Conversion to Dicamba, Dark, Day 3” value ([1]; amber (dark) bottle) was 3%, the “Conversion to Dicamba, Dark, Day 4” value ([1]; amber (dark) bottle) was 3% and the “Conversion to Dicamba, Dark, Day 7” value ([1]; amber (dark) bottle) was 3%. The “Conversion to dicamba, Dark, Day 10” value ([1]; amber (dark) bottle, Day 10) was 3%, the “Conversion to Dicamba, Dark, Day 14” value ([1]; amber (dark) bottle) was 3% and the “Conversion to Dicamba, Dark, Day 21” value ([1]; amber (dark) bottle, Day 21) was 3%. The “Conversion to Dicamba, Dark, Day 28” value ([1]; amber (dark) bottle, Day 28) was 3%, the “Conversion to Dicamba, Light, Day 0” value ([1]; quartz tube, 14-hour day) was 3% and the “Conversion to Dicamba, Light, Day 1” value ([1]; quartz tube, 14-hour day) was 78%. The “Conversion to Dicamba, Light, Day 2” value ([1]; quartz tube, 14-hour day) was 79%, the “Conversion to Dicamba, Light, Day 3” value ([1]; quartz tube, 14-hour day) was 75% and the “Conversion to Dicamba, Light, Day 4” value ([1]; quartz tube, 14-hour day) was 77%. For the same molecule, the “Conversion to Dicamba, Light, Day 7” value ([1]; quartz tube, 14-hour day) was 78%, the “Conversion to dicamba, Light, Day 10” value ([1]; quartz tube, 14-hour day, Day 10) was 84% and the “Conversion to Dicamba, Light, Day 14” value ([1]; quartz tube, 14-hour day) was 82%. The “Conversion to Dicamba, Light, Day 21” value ([1]; quartz tube, 14-hour day, Day 21) was 83%, the “Conversion to Dicamba, Light, Day 28” value ([1]; quartz tube, 14-hour day, Day 28) was 86% and the “% Control of velvetleaf, 140 g/ha” value (velvetleaf [2]; 140 g dicamba equivalent per hectare) was 50%. For the same molecule, the “% Control of velvetleaf, 280 g/ha” value (velvetleaf [2]; 280 g dicamba equivalent per hectare) was 69%, the “% Control of velvetleaf, 420 g/ha” value (velvetleaf [2]; 420 g dicamba equivalent per hectare) was 78% and the “% Control of velvetleaf, 560 g/ha” value (velvetleaf [2]; 560 g dicamba equivalent per hectare) was 90%. For the same molecule, the “Dark Control % dicamba” value [3] was 0%, the “Conversion to dicamba, 1 day” value [3, 6] was 46% and the “Conversion to dicamba, 2 days” value [3, 6] was 54%. The “Conversion to dicamba, 3 days” value [3, 6] was 72%, the “Conversion to dicamba, 5 days” value [3, 6] was 84% and the “Conversion to dicamba, 7 days” value [3, 6] was 88%. The “Conversion to dicamba, 9 days” value ([3]; simulated sunlight 14 hours per day, 35° C., 9 days) was 98%, the “Conversion to dicamba, 12 days” value ([3]; simulated sunlight 14 hours per day, 35° C., 12 days) was 96% and the “Conversion to dicamba, 15 days” value [3, 6] was 95%. The “% Injury” value [4] was 13%, the “Growth Stage” value [4] was 9 and the “control of a number of broadleaf weeds in field testing, in words” value (broadleaf weeds) was “proven effective”. For the same molecule, the “field efficacy for control of broadleaf weeds compared with the diglycolamine salt of dicamba, in words” value (broadleaf weeds; field tests of emulsifiable concentrates) was “slightly more effective than the diglycolamine salt of dicamba”, the “post-emergent control of morning glory compared with the dicamba salt, in words” value (morning glory) was “equivalent to the dicamba salt” and the “% control, 280 g/ha, Morning glory” value (morning glory) was 94%. The “% control, 420 g/ha, Morning glory” value (morning glory) was 95%, the “post-emergent control of velvetleaf compared with the dicamba salt, in words” value (velvetleaf [5]) was “equivalent to the dicamba salt” and the “% control, 280 g/ha, Velvetleaf” value (velvetleaf [5]) was 85%. The “% control, 420 g/ha, Velvetleaf” value (velvetleaf [5]) was 92%, the “post-emergent control of hemp sesbania compared with the dicamba salt, in words” value (hemp sesbania) was “equivalent to the dicamba salt” and the “% control, 280 g/ha, Hemp sesbania” value (hemp sesbania) was 92%. The “% control, 420 g/ha, Hemp sesbania” value (hemp sesbania) was 97%.

For COc1c(Cl)ccc(Cl)c1C(=O)Oc1cnc2ccccc2n1 [Ester 13a, 2-quinoxalinol ester of dicamba], the “Conversion to Dicamba, Dark, Day 0” value ([1]; amber (dark) bottle) was 8%, the “Conversion to Dicamba, Dark, Day 1” value ([1]; amber (dark) bottle) was 7% and the “Conversion to Dicamba, Dark, Day 2” value ([1]; amber (dark) bottle) was 7%. For the same molecule, the “Conversion to Dicamba, Dark, Day 3” value ([1]; amber (dark) bottle) was 8%, the “Conversion to Dicamba, Dark, Day 4” value ([1]; amber (dark) bottle) was 8% and the “Conversion to Dicamba, Dark, Day 7” value ([1]; amber (dark) bottle) was 9%. For the same molecule, the “Conversion to dicamba, Dark, Day 11” value ([1]; amber (dark) bottle, Day 11) was 11%, the “Conversion to Dicamba, Dark, Day 14” value ([1]; amber (dark) bottle) was 12% and the “Conversion to Dicamba, Light, Day 0” value ([1]; quartz tube, 14-hour day) was 8%. The “Conversion to Dicamba, Light, Day 1” value ([1]; quartz tube, 14-hour day) was 9%, the “Conversion to Dicamba, Light, Day 2” value ([1]; quartz tube, 14-hour day) was 12% and the “Conversion to Dicamba, Light, Day 3” value ([1]; quartz tube, 14-hour day) was 13%. The “Conversion to Dicamba, Light, Day 4” value ([1]; quartz tube, 14-hour day) was 13%, the “Conversion to Dicamba, Light, Day 7” value ([1]; quartz tube, 14-hour day) was 15% and the “Conversion to dicamba, Light, Day 11” value ([1]; quartz tube, 14-hour day, Day 11) was 19%. The “Conversion to Dicamba, Light, Day 14” value ([1]; quartz tube, 14-hour day) was 20%, the “% control, 0.25 lb/ac (0.28 kg/hectare)” value (Euphorbia species; 0.25 lb dicamba a.e. per acre) was 46% and the “% control, 0.50 lb/ac (0.56 kg/hectare)” value (Euphorbia species; 0.50 lb dicamba a.e. per acre) was 55%. The “Dark Control % dicamba” value [3] was 11%, the “Conversion to dicamba, 1 day” value [3, 6] was 28% and the “Conversion to dicamba, 2 days” value [3, 6] was 35%. The “Conversion to dicamba, 3 days” value [3, 6] was 43%, the “Conversion to dicamba, 5 days” value [3, 6] was 48% and the “Conversion to dicamba, 7 days” value [3, 6] was 61%. The “Conversion to dicamba, 11 days” value ([3]; simulated sunlight 14 hours per day, 35° C., 11 days) was 66%, the “Conversion to dicamba, 15 days” value [3, 6] was 68% and the “% Injury” value [4] was 18%. The “Growth Stage” value [4] was 8, the “control of a number of broadleaf weeds in field testing, in words” value (broadleaf weeds) was “proven effective” and the “post-emergent control of morning glory compared with the dicamba salt, in words” value (morning glory) was “equivalent to the dicamba salt”. For the same molecule, the “% control, 280 g/ha, Morning glory” value (morning glory) was 100%, the “% control, 420 g/ha, Morning glory” value (morning glory) was 100% and the “post-emergent control of velvetleaf compared with the dicamba salt, in words” value (velvetleaf [5]) was “nearly equivalent to the dicamba salt”. For the same molecule, the “% control, 280 g/ha, Velvetleaf” value (velvetleaf [5]) was 72%, the “% control, 420 g/ha, Velvetleaf” value (velvetleaf [5]) was 84% and the “post-emergent control of hemp sesbania compared with the dicamba salt, in words” value (hemp sesbania) was “equivalent to the dicamba salt”. For the same molecule, the “% control, 280 g/ha, Hemp sesbania” value (hemp sesbania) was 95% and the “% control, 420 g/ha, Hemp sesbania” value (hemp sesbania) was 98%.
